The source made the active and inactive calls.
What was measured:
[1] = system: Staphylococcus aureus; assay: Antibacterial activity against Staphylococcus aureus MTCC 96 incubated for 24 hrs at 37 degC by well diffusion method; type: functional; settings: MTCC 96, 24 h
[2] = system: Bacillus subtilis; assay: Antibacterial activity against Bacillus subtilis MTCC 121 incubated for 24 hrs at 37 degC by well diffusion method; type: functional; settings: MTCC 121, 24 h
[3] = system: Staphylococcus aureus; assay: Antibacterial activity against Staphylococcus aureus MLS16 MTCC 2940 incubated for 24 hrs at 37 degC by well diffusion method; type: functional; settings: MLS16 MTCC 2940, 24 h
[4] = system: Micrococcus luteus; assay: Antibacterial activity against Micrococcus luteus MTCC 2470 incubated for 24 hrs at 37 degC by well diffusion method; type: functional; settings: MTCC 2470, 24 h
[5] = system: Raoultella planticola; assay: Antibacterial activity against Klebsiella planticola MTCC 530 incubated for 24 hrs at 37 degC by well diffusion method; type: functional; settings: MTCC 530, 24 h
[6] = system: Escherichia coli; assay: Antibacterial activity against Escherichia coli MTCC 739 incubated for 24 hrs at 37 degC by well diffusion method; type: functional; settings: MTCC 739, 24 h
[7] = system: Pseudomonas aeruginosa; assay: Antibacterial activity against Pseudomonas aeruginosa MTCC 2453 incubated for 24 hrs at 37 degC by well diffusion method; type: functional; settings: MTCC 2453, 24 h
[8] = system: Candida albicans; assay: Antifungal activity against Candida albicans MTCC 183 incubated for 24 hrs at 30 degC by well diffusion method; type: functional; settings: MTCC 183, 24 h
[9] = system: Candida albicans; assay: Antifungal activity against Candida albicans MTCC 227 incubated for 24 hrs at 30 degC by well diffusion method; type: functional; settings: MTCC 227, 24 h
[10] = system: Candida albicans; assay: Antifungal activity against Candida albicans MTCC 854 incubated for 24 hrs at 30 degC by well diffusion method; type: functional; settings: MTCC 854, 24 h
[11] = system: Candida albicans; assay: Antifungal activity against Candida albicans MTCC 1637 incubated for 24 hrs at 30 degC by well diffusion method; type: functional; settings: MTCC 1637, 24 h
[12] = system: Candida albicans; assay: Antifungal activity against Candida albicans MTCC 3017 incubated for 24 hrs at 30 degC by well diffusion method; type: functional; settings: MTCC 3017, 24 h
[13] = system: Candida albicans; assay: Antifungal activity against Candida albicans MTCC 3018 incubated for 24 hrs at 30 degC by well diffusion method; type: functional; settings: MTCC 3018, 24 h
[14] = system: Candida albicans; assay: Antifungal activity against Candida albicans MTCC 3958 incubated for 24 hrs at 30 degC by well diffusion method; type: functional; settings: MTCC 3958, 24 h
[15] = system: Candida albicans; assay: Antifungal activity against Candida albicans MTCC 4748 incubated for 24 hrs at 30 degC by well diffusion method; type: functional; settings: MTCC 4748, 24 h
[16] = system: Candida albicans; assay: Antifungal activity against Candida albicans MTCC 7315 incubated for 24 hrs at 30 degC by well diffusion method; type: functional; settings: MTCC 7315, 24 h
[17] = system: Candida parapsilosis; assay: Antifungal activity against Candida parapsilosis MTCC 1744 incubated for 24 hrs at 30 degC by well diffusion method; type: functional; settings: Lodderomyces parapsilosis, MTCC 1744, 24 h
[18] = system: [Candida] aaseri; assay: Antifungal activity against Candida aaseri MTCC 1962 incubated for 24 hrs at 30 degC by well diffusion method; type: functional; settings: Yamadazyma aaseri, MTCC 1962, 24 h
[19] = system: Nakaseomyces glabratus; assay: Antifungal activity against Candida glabrata MTCC 3019 incubated for 24 hrs at 30 degC by well diffusion method; type: functional; settings: MTCC 3019, 24 h
[20] = system: Pichia kudriavzevii; assay: Antifungal activity against Candida krusei MTCC 3020 incubated for 24 hrs at 30 degC by well diffusion method; type: functional; settings: MTCC 3020, 24 h
[21] = system: Pichia sporocuriosa; assay: Antifungal activity against Issatchenkia hanoiensis MTCC 4755 incubated for 24 hrs at 30 degC by well diffusion method; type: functional; settings: MTCC 4755, 24 h
[22] = system: Staphylococcus aureus; assay: Bactericidal activity against Staphylococcus aureus MTCC 96 incubated for 24 hrs; type: functional; settings: MTCC 96, 24 h
[23] = system: Bacillus subtilis; assay: Bactericidal activity against Bacillus subtilis MTCC 121 incubated for 24 hrs; type: functional; settings: MTCC 121, 24 h
[24] = system: Staphylococcus aureus; assay: Bactericidal activity against Staphylococcus aureus MLS16 MTCC 2940 incubated for 24 hrs; type: functional; settings: MLS16 MTCC 2940, 24 h
[25] = system: Micrococcus luteus; assay: Bactericidal activity against Micrococcus luteus MTCC 2470 incubated for 24 hrs; type: functional; settings: MTCC 2470, 24 h
[26] = system: Raoultella planticola; assay: Bactericidal activity against Klebsiella planticola MTCC 530 incubated for 24 hrs; type: functional; settings: MTCC 530, 24 h
[27] = system: Escherichia coli; assay: Bactericidal activity against Escherichia coli MTCC 739 incubated for 24 hrs; type: functional; settings: MTCC 739, 24 h
[28] = system: Candida albicans; assay: Fungicidal activity against Candida albicans MTCC 183 incubated for 24 hrs; type: functional; settings: MTCC 183, 24 h
[29] = system: Candida albicans; assay: Fungicidal activity against Candida albicans MTCC 227 incubated for 24 hrs; type: functional; settings: MTCC 227, 24 h
[30] = system: Candida albicans; assay: Fungicidal activity against Candida albicans MTCC 854 incubated for 24 hrs; type: functional; settings: MTCC 854, 24 h
[31] = system: Candida albicans; assay: Fungicidal activity against Candida albicans MTCC 1637 incubated for 24 hrs; type: functional; settings: MTCC 1637, 24 h
[32] = system: Candida albicans; assay: Fungicidal activity against Candida albicans MTCC 3017 incubated for 24 hrs; type: functional; settings: MTCC 3017, 24 h
[33] = system: Candida albicans; assay: Fungicidal activity against Candida albicans MTCC 3018 incubated for 24 hrs; type: functional; settings: MTCC 3018, 24 h
[34] = system: Candida albicans; assay: Fungicidal activity against Candida albicans MTCC 3958 incubated for 24 hrs; type: functional; settings: MTCC 3958, 24 h
[35] = system: Candida albicans; assay: Fungicidal activity against Candida albicans MTCC 4748 incubated for 24 hrs; type: functional; settings: MTCC 4748, 24 h
[36] = system: Candida albicans; assay: Fungicidal activity against Candida albicans MTCC 7315 incubated for 24 hrs; type: functional; settings: MTCC 7315, 24 h
[37] = system: Candida parapsilosis; assay: Fungicidal activity against Candida parapsilosis MTCC 1744 incubated for 24 hrs; type: functional; settings: Lodderomyces parapsilosis, MTCC 1744, 24 h
[38] = system: [Candida] aaseri; assay: Fungicidal activity against Candida aaseri MTCC 1962 incubated for 24 hrs; type: functional; settings: Yamadazyma aaseri, MTCC 1962, 24 h
[39] = system: Nakaseomyces glabratus; assay: Fungicidal activity against Candida glabrata MTCC 3019 incubated for 24 hrs; type: functional; settings: MTCC 3019, 24 h
[40] = system: Pichia kudriavzevii; assay: Fungicidal activity against Candida krusei MTCC 3020 incubated for 24 hrs; type: functional; settings: MTCC 3020, 24 h
[41] = system: Pichia sporocuriosa; assay: Fungicidal activity against Issatchenkia hanoiensis MTCC 4755 incubated for 24 hrs; type: functional; settings: MTCC 4755, 24 h
[42] = system: Candida albicans; assay: Antibiofilm activity against Candida albicans MTCC 227 after 24 hrs by crystal violet staining based assay; type: functional, organism-based; settings: MTCC 227, 24 h
[43] = system: Micrococcus luteus; assay: Antibiofilm activity against Micrococcus luteus MTCC 2470 after 24 hrs by crystal violet staining based assay; type: functional, organism-based; settings: MTCC 2470, 24 h
[44] = system: Staphylococcus aureus; assay: Antibiofilm activity against Staphylococcus aureus MTCC 96 after 24 hrs by crystal violet staining based assay; type: functional, organism-based; settings: MTCC 96, 24 h
[45] = system: Candida albicans; assay: Induction of ROS accumulation in Candida albicans MTCC 227 sessile cells at 2 to 8 ug/ml incubated for 24 hrs by DCFH-DA dye based microplate reader analysis; type: functional, organism-based

CCCCCCCCC[C@@H](O)[C@H](CO)n1cc(-c2cccc(O)c2)nn1
1.9 µg/mL: IC50 [42]
2.9 µg/mL: IC50 [44]
active: Activity [45]
> 250 µg/mL: MIC [6] | MIC [7] | MBC [27]
3.9 µg/mL: MIC [4] | MIC [9] | MIC [10] | MBC [25] | MFC [29]
15.6 µg/mL: MIC [5] | MIC [11] | MIC [14] | MIC [17] | MIC [20] | MBC [23] | MBC [24] | MBC [26] | MFC [28] | MFC [31] | MFC [33] | MFC [35] | MFC [37] | MFC [38]
31.2 µg/mL: MIC [16] | MFC [34] | MFC [36] | MFC [40]
2.1 µg/mL: IC50 [43]
7.8 µg/mL: MIC [1] | MIC [2] | MIC [3] | MIC [8] | MIC [12] | MIC [13] | MIC [15] | MIC [18] | MIC [19] | MIC [21] | MBC [22] | MFC [30] | MFC [32] | MFC [39] | MFC [41]

O=C(O)c1cn(C2CC2)c2cc(N3CCNCC3)c(F)cc2c1=O [CIPROFLOXACIN]
0.9 µg/mL: MIC [1] | MIC [2] | MIC [3] | MIC [4] | MIC [5] | MIC [6] | MIC [7] | MBC [22] | MBC [25] | MBC [26]
1.9 µg/mL: MBC [23] | MBC [24] | MBC [27]

CCCCCCCCC[C@@H](O)[C@@H](N)CO
> 250 µg/mL: MIC [1] | MIC [2] | MIC [7] | MBC [22] | MBC [23]
3.9 µg/mL: MIC [4]
62.5 µg/mL: MIC [17] | MFC [29] | MFC [36] | MFC [37]
31.2 µg/mL: MIC [3] | MIC [9] | MIC [10] | MIC [15] | MIC [16] | MBC [24] | MBC [26] | MBC [27] | MFC [30] | MFC [32] | MFC [34] | MFC [35] | MFC [38] | MFC [40]
15.6 µg/mL: MIC [5] | MIC [6] | MIC [8] | MIC [11] | MIC [12] | MIC [14] | MIC [18] | MIC [20] | MIC [21] | MFC [28] | MFC [31] | MFC [33] | MFC [41]
7.8 µg/mL: MIC [13] | MIC [19] | MBC [25] | MFC [39]

CCCCCCCCC[C@@H](O)[C@H](CO)n1cc(-c2ccc3cc(OC)ccc3c2)nn1
> 250 µg/mL: MIC [1] | MIC [2] | MIC [3] | MIC [4] | MIC [5] | MIC [6] | MIC [7]
